The supplement of paper PMC10307832

Legend:
Test in all cases: relative viability (nuclei count vs DMSO), 5 days (fraction); higher = more cells survive
Fedratinib + Tozasertib = compound: Cc1cnc(Nc2ccc(OCCN3CCCC3)cc2)nc1Nc1cccc(S(=O)(=O)NC(C)(C)C)c1 [Fedratinib] + Cc1cc(Nc2cc(N3CCN(C)CC3)nc(Sc3ccc(NC(=O)C4CC4)cc3)n2)n[nH]1 [Tozasertib] (partner 0.1 µM)
How it was run: (§1)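 Lung cancer cell lines were pin-tool dosed in 1536-well plates on the day after seeding, with either a lone drug or a fixed anchor-drug dose plus five library-drug doses (not always all listed) in √10 steps. Nuclei were counted on 4× images after 5 days. Relative viability is the ratio of treated-well to vehicle-well nuclei counts, with each value a median of duplicate plates.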

Fedratinib + Bortezomib = compound: Cc1cnc(Nc2ccc(OCCN3CCCC3)cc2)nc1Nc1cccc(S(=O)(=O)NC(C)(C)C)c1 [Fedratinib] + CC(C)C[C@H](NC(=O)[C@H](Cc1ccccc1)NC(=O)c1cnccn1)B(O)O [Bortezomib] (partner 0.002 µM)
How it was run: as §1

Fedratinib + Linsitinib = compound: Cc1cnc(Nc2ccc(OCCN3CCCC3)cc2)nc1Nc1cccc(S(=O)(=O)NC(C)(C)C)c1 [Fedratinib] + C[C@]1(O)C[C@@H](c2nc(-c3ccc4ccc(-c5ccccc5)nc4c3)c3c(N)nccn32)C1 [Linsitinib] (partner 1 µM)
How it was run: as §1

GW-2580 + Olaparib = compound: COC1=CC=C(C=C1)COC2=C(C=C(C=C2)CC3=CN=C(N=C3N)N)OC [GW-2580] + O=C(c1cc(Cc2n[nH]c(=O)c3ccccc23)ccc1F)N1CCN(C(=O)C2CC2)CC1 [Olaparib] (partner 8 µM)
How it was run: as §1

GW-2580 + Alpelisib = compound: COC1=CC=C(C=C1)COC2=C(C=C(C=C2)CC3=CN=C(N=C3N)N)OC [GW-2580] + Cc1nc(NC(=O)N2CCC[C@H]2C(N)=O)sc1-c1ccnc(C(C)(C)C(F)(F)F)c1 [Alpelisib] (partner 2 µM)
How it was run: as §1

| Cell Line | relative viability (Fedratinib + Tozasertib; first compound 0.1 µM) | relative viability (Fedratinib + Tozasertib; first compound 0.3162 µM) | relative viability (Fedratinib + Tozasertib; first compound 1 µM) | relative viability (Fedratinib + Bortezomib; first compound 0.1 µM) | relative viability (Fedratinib + Bortezomib; first compound 0.3162 µM) | relative viability (Fedratinib + Bortezomib; first compound 1 µM) | relative viability (Fedratinib + Linsitinib; first compound 0.1 µM) | relative viability (Fedratinib + Linsitinib; first compound 0.3162 µM) | relative viability (Fedratinib + Linsitinib; first compound 1 µM) | relative viability (GW-2580 + Olaparib; first compound 0.08 µM) | relative viability (GW-2580 + Olaparib; first compound 0.8 µM) | relative viability (GW-2580 + Olaparib; first compound 2.53 µM) | relative viability (GW-2580 + Olaparib; first compound 8 µM) | relative viability (GW-2580 + Alpelisib; first compound 0.08 µM) | relative viability (GW-2580 + Alpelisib; first compound 0.8 µM) | relative viability (GW-2580 + Alpelisib; first compound 2.53 µM) | relative viability (GW-2580 + Alpelisib; first compound 8 µM) |
| --- | --- | --- | --- | --- | --- | --- | --- | --- | --- | --- | --- | --- | --- | --- | --- | --- | --- |
| LXF-289 | 0.149 | 0.185 | 0.151 | 1.02 | 0.978 | 0.78 | 0.989 | 0.943 | 0.963 | 1.24 | 1.14 | 1.06 | 1.19 | 1.07 | 1.09 | 0.998 | 0.907 |
| H3255 | 0.578 | 0.537 | 0.655 | 0.63 | 0.742 | 0.605 | 1.04 | 1.03 | 0.926 | 0.618 | 0.607 | 0.566 | 0.508 | 0.659 | 0.846 | 0.686 | 0.676 |
| 201T | 0.609 | 0.904 | 0.874 | 1.01 | 1.07 | 1.08 | 1.03 | 1.02 | 0.974 | 0.896 | 0.73 | 0.887 | 0.794 | 1.02 | 1.1 | 1.01 | 1.01 |
| NCI-H2126 | 0.429 | 0.818 | 0.781 | 1.08 | 1.12 | 1.07 | 0.689 | 0.732 | 0.682 | 1.02 | 0.942 | 0.793 | 0.851 | 0.757 | 0.772 | 0.719 | 0.714 |
| HOP-62 | 0.289 | 0.362 | 0.358 | 1.01 | 0.92 | 0.785 | 0.837 | 0.975 | 0.884 | 0.512 | 0.809 | 0.179 | 0.402 | 0.914 | 1.01 | 0.694 | 1.07 |
| CAL-12T | 0.285 | 0.304 | 0.322 | 0.963 | 1.07 | 0.805 | 0.739 | 0.819 | 0.853 | 0.743 | 0.817 | 0.726 | 0.69 | 1.45 |  | 1.19 | 1.06 |
| NCI-H520 | 0.438 | 0.467 | 0.405 | 0.524 | 0.711 | 0.173 | 1.09 | 1.25 | 1.02 | 0.3 | 0.416 | 0.337 | 0.342 | 1.02 | 0.988 | 0.837 | 0.966 |
| NCI-H1755 | 0.53 | 0.524 | 0.523 | 0.938 | 0.92 | 0.903 | 0.995 | 1 | 0.885 | 0.984 | 0.905 | 0.737 | 0.785 | 1.02 | 1.02 | 0.787 | 0.945 |
| NCI-H2023 | 0.226 | 0.289 | 0.281 | 1.08 | 0.95 | 0.0957 | 0.603 | 0.673 | 0.601 | 0.541 | 0.589 | 0.457 | 0.511 | 0.611 | 0.625 | 0.513 | 0.604 |
